Active and inactive are the calls of the source. The calls are words filed in the database; no cut-off is given here.
Columns and labels:
[1] = test system: Plasmodium gallinaceum; experiment: Antimalarial activity against trophozoite-induced Plasmodium gallinaceum infected in white leghorn chicken assessed as increase in mean survival days of host at 2.5 mg/kg, sc administered 72 hrs after infection relative to control; format: functional; conditions: route subcutaneous
[2] = test system: Plasmodium berghei; experiment: Antimalarial activity against Plasmodium berghei infected in mouse assessed as increase in mean survival days of host at 5 mg/kg, sc administered 72 hrs after infection relative to control; format: functional; conditions: route subcutaneous
[3] = test system: Plasmodium gallinaceum; experiment: Antimalarial activity against trophozoite-induced Plasmodium gallinaceum infected in white leghorn chicken assessed as increase in mean survival days of host at 0.63 mg/kg, sc administered 72 hrs after infection relative to control; format: functional; conditions: route subcutaneous
[4] = test system: Plasmodium gallinaceum; experiment: Antimalarial activity against trophozoite-induced Plasmodium gallinaceum infected in white leghorn chicken assessed as increase in mean survival days of host at 160 mg/kg, sc administered 72 hrs after infection relative to control; format: functional; conditions: route subcutaneous
[5] = test system: Plasmodium gallinaceum; experiment: Antimalarial activity against trophozoite-induced Plasmodium gallinaceum infected in white leghorn chicken assessed as increase in mean survival days of host at 40 mg/kg, sc administered 72 hrs after infection relative to control; format: functional; conditions: route subcutaneous
[6] = test system: Plasmodium gallinaceum; experiment: Antimalarial activity against trophozoite-induced Plasmodium gallinaceum infected in white leghorn chicken assessed as increase in mean survival days of host at 10 mg/kg, sc administered 72 hrs after infection relative to control; format: functional; conditions: route subcutaneous
[7] = test system: Plasmodium gallinaceum; experiment: Antimalarial activity against sporozoite-induced Plasmodium gallinaceum infected in white leghorn chicken assessed as disease cure from parasite infection at 80 mg/kg, sc administered 72 hrs after infection; format: functional, organism-based; parameters: dose 80 mg/kg
[8] = test system: Plasmodium gallinaceum; experiment: Antimalarial activity against sporozoite-induced Plasmodium gallinaceum infected in white leghorn chicken assessed as increase in mean survival days of host at 40 mg/kg, sc administered 72 hrs after infection relative to control; format: functional; conditions: route subcutaneous
[9] = test system: Plasmodium gallinaceum; experiment: Antimalarial activity against trophozoite-induced Plasmodium gallinaceum infected in white leghorn chicken assessed as increase in mean survival days of host at 80 mg/kg, sc administered 72 hrs after infection relative to control; format: functional; conditions: route subcutaneous
[10] = test system: Plasmodium gallinaceum; experiment: Antimalarial activity against sporozoite-induced Plasmodium gallinaceum infected in white leghorn chicken assessed as disease cure from parasite infection at 160 mg/kg, sc administered 72 hrs after infection; format: functional, organism-based; parameters: dose 160 mg/kg
[11] = test system: Staphylococcus aureus; experiment: Antibacterial activity against Staphylococcus aureus UC-96 by gradient plate test; format: functional
[12] = test system: Plasmodium gallinaceum; experiment: Antimalarial activity against trophozoite-induced Plasmodium gallinaceum infected in white leghorn chicken assessed as increase in mean survival days of host at 20 mg/kg, sc administered 72 hrs after infection relative to control; format: functional; conditions: route subcutaneous
[13] = test system: Plasmodium berghei; experiment: Antimalarial activity against Plasmodium berghei infected in mouse assessed as disease cure from parasite infection at 20 mg/kg, sc administered 72 hrs after infection; format: functional, organism-based; parameters: dose 20 mg/kg
[14] = test system: Plasmodium berghei; experiment: Antimalarial activity against Plasmodium berghei infected in mouse assessed as disease cure from parasite infection at 40 mg/kg, sc administered 72 hrs after infection; format: functional, organism-based; parameters: dose 40 mg/kg
[15] = test system: Plasmodium berghei; experiment: Antimalarial activity against trophozoite-induced Plasmodium berghei infected in mouse assessed as daily dose required to suppression of 90% parasite infection administered with diet for 6 days; format: functional
[16] = test system: Plasmodium gallinaceum; experiment: Antimalarial activity against sporozoite-induced Plasmodium gallinaceum infected in white leghorn chicken assessed as increase in mean survival days of host at 80 mg/kg, sc administered 72 hrs after infection relative to control; format: functional; conditions: route subcutaneous
[17] = test system: Shigella sonnei; experiment: Antibacterial activity against Shigella sonnei C-10 by gradient plate test; format: functional
[18] = test system: Gallus gallus; experiment: Toxicity in sporozoite-induced Plasmodium gallinaceum infected white leghorn chicken assessed as mortality at 320 mg/kg, sc administered 72 hrs after infection measured up to 6 days; format: organism-based; parameters: dose 320 mg/kg, route subcutaneous; conditions: in vivo
[19] = test system: Staphylococcus aureus; experiment: Antibacterial activity against drug-resistant Staphylococcus aureus S18713 by gradient plate test; format: functional
[20] = test system: Plasmodium gallinaceum; experiment: Antimalarial activity against trophozoite-induced Plasmodium gallinaceum infected in white leghorn chicken assessed as increase in mean survival days of host at 5 mg/kg, sc administered 72 hrs after infection relative to control; format: functional; conditions: route subcutaneous
[21] = test system: Plasmodium gallinaceum; experiment: Antimalarial activity against trophozoite-induced Plasmodium gallinaceum infected in white leghorn chicken assessed as increase in mean survival days of host at 320 mg/kg, sc administered 72 hrs after infection relative to control; format: functional; conditions: route subcutaneous
[22] = test system: Plasmodium berghei; experiment: Antimalarial activity against Plasmodium berghei infected in mouse assessed as increase in mean survival days of host at 20 mg/kg, sc administered 72 hrs after infection relative to control; format: functional; conditions: route subcutaneous
[23] = test system: Plasmodium gallinaceum; experiment: Antimalarial activity against sporozoite-induced Plasmodium gallinaceum infected in white leghorn chicken assessed as disease cure from parasite infection at 20 mg/kg, sc administered 72 hrs after infection; format: functional, organism-based; parameters: dose 20 mg/kg
[24] = test system: Plasmodium berghei; experiment: Antimalarial activity against Plasmodium berghei infected in mouse assessed as increase in mean survival days of host at 2.5 mg/kg, sc administered 72 hrs after infection relative to control; format: functional; conditions: route subcutaneous
[25] = test system: Plasmodium berghei; experiment: Antimalarial activity against Plasmodium berghei infected in mouse assessed as disease cure from parasite infection at 160 mg/kg, sc administered 72 hrs after infection; format: functional, organism-based; parameters: dose 160 mg/kg
[26] = test system: Plasmodium berghei; experiment: Antimalarial activity against Plasmodium berghei infected in mouse assessed as disease cure from parasite infection at 80 mg/kg, sc administered 72 hrs after infection; format: functional, organism-based; parameters: dose 80 mg/kg
[27] = test system: Escherichia coli; experiment: Antibacterial activity against Escherichia coli Vogel by gradient plate test; format: functional
[28] = test system: Plasmodium berghei; experiment: Ratio of quinine hydrochloride SD90 to compound SD90 for trophozoite-induced Plasmodium berghei infected in mouse assessed as daily dose required to suppression of 90% parasite infection administered with diet for 6 days; format: functional
[29] = test system: Plasmodium gallinaceum; experiment: Antimalarial activity against sporozoite-induced Plasmodium gallinaceum infected in white leghorn chicken assessed as disease cure from parasite infection at 40 mg/kg, sc administered 72 hrs after infection; format: functional, organism-based; parameters: dose 40 mg/kg
[30] = test system: Pseudomonas aeruginosa; experiment: Antibacterial activity against Pseudomonas aeruginosa 28 by gradient plate test; format: functional
[31] = test system: Plasmodium berghei; experiment: Antimalarial activity against Plasmodium berghei infected in mouse assessed as disease cure from parasite infection at 640 mg/kg, sc administered 72 hrs after infection; format: functional, organism-based; parameters: dose 640 mg/kg
[32] = test system: Gallus gallus; experiment: Toxicity in sporozoite-induced Plasmodium gallinaceum infected white leghorn chicken assessed as mortality at 160 mg/kg, sc administered 72 hrs after infection measured up to 6 days; format: organism-based; parameters: dose 160 mg/kg, route subcutaneous; conditions: in vivo
[33] = test system: Plasmodium berghei; experiment: Antimalarial activity against Plasmodium berghei infected in mouse assessed as increase in mean survival days of host at 1.25 mg/kg, sc administered 72 hrs after infection relative to control; format: functional; conditions: route subcutaneous
[34] = test system: Plasmodium gallinaceum; experiment: Antimalarial activity against trophozoite-induced Plasmodium gallinaceum infected in white leghorn chicken assessed as disease cure from parasite infection at 160 mg/kg, sc administered 72 hrs after infection; format: functional, organism-based; parameters: dose 160 mg/kg
[35] = test system: Enterococcus faecalis; experiment: Antibacterial activity against Streptococcus faecalis MGH-2 by gradient plate test; format: functional
[36] = test system: Plasmodium berghei; experiment: Antimalarial activity against Plasmodium berghei infected in mouse assessed as disease cure from parasite infection at 320 mg/kg, sc administered 72 hrs after infection; format: functional, organism-based; parameters: dose 320 mg/kg
[37] = test system: Plasmodium gallinaceum; experiment: Antimalarial activity against sporozoite-induced Plasmodium gallinaceum infected in white leghorn chicken assessed as increase in mean survival days of host at 10 mg/kg, sc administered 72 hrs after infection relative to control; format: functional; conditions: route subcutaneous
[38] = test system: Plasmodium gallinaceum; experiment: Antimalarial activity against sporozoite-induced Plasmodium gallinaceum infected in white leghorn chicken assessed as disease cure from parasite infection at 320 mg/kg, sc administered 72 hrs after infection; format: functional, organism-based; parameters: dose 320 mg/kg
[39] = test system: Plasmodium gallinaceum; experiment: Antimalarial activity against trophozoite-induced Plasmodium gallinaceum infected in white leghorn chicken assessed as disease cure from parasite infection at 320 mg/kg, sc administered 72 hrs after infection; format: functional, organism-based; parameters: dose 320 mg/kg
[40] = test system: Plasmodium gallinaceum; experiment: Antimalarial activity against sporozoite-induced Plasmodium gallinaceum infected in white leghorn chicken assessed as disease cure from parasite infection at 10 mg/kg, sc administered 72 hrs after infection; format: functional, organism-based; parameters: dose 10 mg/kg
[41] = test system: Plasmodium gallinaceum; experiment: Antimalarial activity against sporozoite-induced Plasmodium gallinaceum infected in white leghorn chicken assessed as increase in mean survival days of host at 20 mg/kg, sc administered 72 hrs after infection relative to control; format: functional; conditions: route subcutaneous
[42] = test system: Plasmodium gallinaceum; experiment: Antimalarial activity against trophozoite-induced Plasmodium gallinaceum infected in white leghorn chicken assessed as increase in mean survival days of host at 1.25 mg/kg, sc administered 72 hrs after infection relative to control; format: functional; conditions: route subcutaneous
[43] = test system: Plasmodium berghei; experiment: Antimalarial activity against Plasmodium berghei infected in mouse assessed as increase in mean survival days of host at 10 mg/kg, sc administered 72 hrs after infection relative to control; format: functional; conditions: route subcutaneous

## Nc1nc(N)c2cc(Sc3ccc(F)cc3)ccc2n1
[1]
  MST: 3.2 days
[2]
  MST: 7.1 days
[3]
  MST: 0 days
[4]
  MST: 15.5 days
[5]
  MST: 9.2 days
[6]
  MST: 7.2 days
[7]
  Activity: Active
[8]
  MST: 0.5 days
[9]
  MST: 13 days
[10]
  Activity: Active
[11]
  MIC: < 0.25 µg/mL
[12]
  MST: 7.8 days
[13]
  Activity: Active
[14]
  Activity: Active
[15]
  SD90: 0.36 mg/kg/day
[16]
  MST: 0.5 days
[17]
  MIC: < 0.25 µg/mL
[18]
  Activity: Toxic
[19]
  MIC: < 0.25 µg/mL
[20]
  MST: 5.8 days
[21]
  MST: 19.3 days
[22]
  MST: 13.5 days
[23]
  Activity: Active
[24]
  MST: 6.1 days
[25]
  Activity: Active
[26]
  Activity: Active
[27]
  MIC: < 0.25 µg/mL
[28]
  Ratio: 210
[29]
  Activity: Active
[30]
  MIC: > 25 µg/mL
[31]
  Activity: Active
[32]
  Activity: Toxic
[33]
  MST: 5.3 days
[34]
  Activity: Active
[35]
  MIC: < 0.25 µg/mL
[36]
  Activity: Active
[37]
  MST: 6.5 days
[38]
  Activity: Active
[39]
  Activity: Active
[40]
  Activity: Active
[41]
  MST: 0.5 days
[42]
  MST: 0 days
[43]
  MST: 11.1 days
